Patent US10947196B2, “Beta adrenergic agonist and methods of using the same” (CURASEN THERAPEUTICS, INC., priority 2019, dated 2021)

Target: β1-adrenergic receptor (Homo sapiens (Human), UniProt P08588)
Assay: cAMP Gs dynamic HTRF assay, β1 expressing CHO cells
Assay type: cell-based
Conditions: B1-AR; CHO-K1 (HitHunter); read-out: Average pEC50 [Receptor subtype: B1-AR; Cell type: CHO-K1 (HitHunter)] (converted)
Protocol: (§1) cAMP homogeneous time-resolved fluorescence (HTRF). Compound efficacy was determined using the cAMP Gs dynamic HTRF assay (Cisbio, catalog #62AM4PEC) largely following the manufacturer's instructions, also detailed below.
(§2) Compound preparation. […] Standard serial dilution curves were 10-point, 5-fold dilutions starting from a highest concentration of 10 μM. […] Assay plates were centrifuged at 500×g for 10 seconds. Compounds and IBMX were prepared at 2× final dose to compensate for addition of cells.
(§3) Cell preparation. 1× stimulation buffer, washing PBS (Dulbecco's phosphate-buffered saline, −Mg −Ca; Caisson Labs, catalog #PBL01), assay PBS (Dulbecco's phosphate-buffered saline, +Mg, +Ca; Caisson Labs, catalog #PBL02) and Versene (0.02% EDTA disodium salt solution in PBS without calcium or magnesium; Caisson Labs, catalog #EDL01) were pre-warmed to 37° C. Cells expressing beta-adrenergic receptor were washed in washing PBS to remove growth medium and then released from the surface by incubating with Versene for 5-10 minutes at 37° C. Cells were harvested using assay PBS, counted manually by hemocytometer or by an automated cell counter, pelleted by centrifugation (200×g, 5 minutes) and resuspended in 37° C. 1× stimulation buffer to a final density of 1.5×10^6 cells/mL. 5 μL of the suspended cell solution (7500 cell total) were added to all wells of the 384 well assay plate, the assay plate was covered with an Axygen® plate seal (Corning PCR-SP) and incubated in a humidified 37° C. environment supplemented with 5% CO2 for 30 minutes.
(§4) HTRF reagent addition, reading and data analysis. After 30 minutes of cell stimulation with test compound, the assay plates were centrifuged at 500×g for 10 seconds, and incubation was stopped with the addition of 5 μL cAMP-D2 acceptor, diluted 1:21 in detection and lysis buffer 2 (Cisbio 62CL2FDF) was added to all cells. Subsequently, 5 μL Anti-cAMP-Eu Donor, diluted 1:21 in detection and lysis buffer 2, was added to cells. Plates were sealed and reactions gently ‘vortexed’ at 900 rpm on a Heidolph Titramax 1000 for at least 30 minutes at room temperature. Plates were centrifuged again at 500×g for 10 seconds, and HTRF was measured using a Tecan Spark plate reader at 50 flashes per well. […] Potency estimates (EC50) were derived from the four-parameter nonlinear regression of the concentration-effect curve and an estimate of relative efficacy was determined by comparing the magnitude of the test compound HTRF signal window (min−max dose) with the signal window of the full agonist control, isoproterenol.

Chain of β1-adrenergic receptor (P08588 whole entry, species assumed): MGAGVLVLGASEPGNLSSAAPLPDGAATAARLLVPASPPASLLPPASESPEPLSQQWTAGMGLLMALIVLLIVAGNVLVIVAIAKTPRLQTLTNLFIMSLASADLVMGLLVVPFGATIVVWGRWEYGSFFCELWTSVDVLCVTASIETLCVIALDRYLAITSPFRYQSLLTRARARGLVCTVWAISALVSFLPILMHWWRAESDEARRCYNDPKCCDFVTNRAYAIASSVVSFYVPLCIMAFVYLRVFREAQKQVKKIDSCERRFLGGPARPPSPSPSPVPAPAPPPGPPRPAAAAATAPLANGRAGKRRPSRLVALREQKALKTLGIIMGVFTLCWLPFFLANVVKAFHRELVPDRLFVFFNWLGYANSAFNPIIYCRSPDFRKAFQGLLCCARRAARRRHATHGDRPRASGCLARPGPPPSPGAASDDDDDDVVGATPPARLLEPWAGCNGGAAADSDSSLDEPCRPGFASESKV

SMILES | EC50
CC(C)(C)NC[C@@H](O)c1cccc(C2=CCCC2)n1 [Compound 03-234] | 10 to 100 nM
O[C@H](CNC1(C(F)(F)F)CC1)c1cccc(C(F)(F)F)n1 [Compound 03-235] | > 1000 nM
CC(=O)Nc1cccc([C@H](O)CNC(C)(C)C)n1 [Compound 03-239] | 100 to 1000 nM
CC(C)(C)NC[C@H](O)c1cccnc1-n1ccnn1 [Compound 03-241] | > 1000 nM
CC(C)(C)NC[C@@H](O)c1cccc(-c2ccc[nH]2)n1 [Compound 03-244] | 100 to 1000 nM
CC(C)(C)NC[C@H](O)c1cccc(C2=N[C@H](C(=O)O)CS2)n1 [Compound 03-246] | > 1000 nM
Cc1cnccc1[C@@H](O)CNC(C)(C)C [Compound 03-247, (R)-2-(tert-butylamino)-1-(3-methylpyridin-4-yl)ethan-1-ol] | > 1000 nM
CC(C)(C)NC[C@@H](O)c1cccc(NC2CC2)n1 [Compound 03-250] | > 1000 nM
CNCc1cccc([C@@H](O)CNC(C)(C)C)n1 [Compound 03-252] | > 1000 nM
CNCc1cccc([C@@H](O)CN[C@H](C)Cc2ccc(OC)cc2)n1 [Compound 03-254] | > 1000 nM
Cc1ncc(F)cc1[C@@H](O)CNC(C)(C)C [Compound 03-258] | 100 to 1000 nM
COc1ccc([C@@H](O)CNC(C)(C)C)c(C)n1 [Compound 03-259] | 10 to 100 nM
Cc1ncc([C@@H](O)CNC(C)(C)C)c(C)n1 [Compound 03-261] | > 1000 nM
CCNc1cccc([C@@H](O)CNC(C)(C)C)n1 [Compound 03-262] | 10 to 100 nM
CC(C)(C)NC[C@H](O)c1cccc(NC2CC(F)(F)C2)n1 [Compound 03-263] | 10 to 100 nM
CC(C)(C)NC[C@H](O)c1cccc(NC2(C)CC2)n1 [Compound 03-264] | 10 to 100 nM
COc1ccc(C[C@@H](C)NC[C@H](O)c2cccc(C3CCCC3)n2)cc1 [Compound 03-265] | 10 to 100 nM
CC(C)(C)NC[C@H](O)c1cccc(NCC(F)(F)F)n1 [Compound 03-266] | < 10 nM
Cc1nc(C2CC2)ccc1[C@@H](O)CNC(C)(C)C [Compound 03-268] | 10 to 100 nM
COc1ccc(C[C@@H](C)NC[C@H](O)c2cc(Cl)cnc2C)cc1 [Compound 03-271] | 100 to 1000 nM
CC(C)(C)NC[C@@H](O)c1cccc(OC(C)(C)C)n1 [Compound 03-273] | > 1000 nM
Cc1nc(NC2CC2)ccc1[C@@H](O)CNC(C)(C)C [Compound 03-274] | > 1000 nM
CNc1ccc([C@@H](O)CNC(C)(C)C)c(C)n1 [Compound 03-276] | 100 to 1000 nM
[2H]C([2H])([2H])C(NCC(O)c1cccnc1C)(C([2H])([2H])[2H])C([2H])([2H])[2H] (stereo not shown) [Compound 03-278] | 100 to 1000 nM
[2H]C([2H])([2H])Nc1cccc([C@@H](O)CNC(C)(C)C)n1 [Compound 03-279] | > 1000 nM
CC(C)(C)NC[C@H](O)c1cccc(C(C)(C)CN)n1 [Compound 03-280] | > 1000 nM

Target: β2 adrenergic receptor (Homo sapiens (Human), UniProt P07550)
Sequence (P07550 whole entry, species assumed): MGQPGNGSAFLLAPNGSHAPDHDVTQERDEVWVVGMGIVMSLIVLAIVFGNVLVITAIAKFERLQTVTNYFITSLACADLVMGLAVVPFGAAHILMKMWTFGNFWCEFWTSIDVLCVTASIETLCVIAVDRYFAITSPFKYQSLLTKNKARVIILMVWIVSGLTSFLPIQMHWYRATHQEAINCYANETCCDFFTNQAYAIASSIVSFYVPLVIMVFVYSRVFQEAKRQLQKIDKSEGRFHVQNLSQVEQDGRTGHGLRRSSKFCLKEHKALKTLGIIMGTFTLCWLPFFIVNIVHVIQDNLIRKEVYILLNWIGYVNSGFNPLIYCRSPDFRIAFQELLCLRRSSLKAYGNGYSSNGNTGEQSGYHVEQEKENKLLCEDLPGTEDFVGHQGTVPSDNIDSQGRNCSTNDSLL
Assay: cAMP Gs dynamic HTRF assay, β2 expressing CHO cells
Assay type: cell-based
Conditions: B2-AR; CHO-K1 (HitHunter); read-out: Average pEC50 [Receptor subtype: B2-AR; Cell type: CHO-K1 (HitHunter)] (converted)
Protocol: as §1, §2, §3, §4

SMILES | EC50
CC(C)(C)NC[C@@H](O)c1cccc(C2=CCCC2)n1 [Compound 03-234] | 10 to 100 nM
O[C@H](CNC1(C(F)(F)F)CC1)c1cccc(C(F)(F)F)n1 [Compound 03-235] | > 1000 nM
CC(=O)Nc1cccc([C@H](O)CNC(C)(C)C)n1 [Compound 03-239] | 10 to 100 nM
CC(C)(C)NC[C@H](O)c1cccnc1-n1ccnn1 [Compound 03-241] | > 1000 nM
CC(C)(C)NC[C@@H](O)c1cccc(-c2ccc[nH]2)n1 [Compound 03-244] | 10 to 100 nM
CC(C)(C)NC[C@H](O)c1cccc(C2=N[C@H](C(=O)O)CS2)n1 [Compound 03-246] | > 1000 nM
Cc1cnccc1[C@@H](O)CNC(C)(C)C [Compound 03-247, (R)-2-(tert-butylamino)-1-(3-methylpyridin-4-yl)ethan-1-ol] | > 1000 nM
CC(C)(C)NC[C@@H](O)c1cccc(NC2CC2)n1 [Compound 03-250] | 100 to 1000 nM
CNCc1cccc([C@@H](O)CNC(C)(C)C)n1 [Compound 03-252] | > 1000 nM
CNCc1cccc([C@@H](O)CN[C@H](C)Cc2ccc(OC)cc2)n1 [Compound 03-254] | 100 to 1000 nM
Cc1ncc(F)cc1[C@@H](O)CNC(C)(C)C [Compound 03-258] | 10 to 100 nM
COc1ccc([C@@H](O)CNC(C)(C)C)c(C)n1 [Compound 03-259] | < 10 nM
Cc1ncc([C@@H](O)CNC(C)(C)C)c(C)n1 [Compound 03-261] | 100 to 1000 nM
CCNc1cccc([C@@H](O)CNC(C)(C)C)n1 [Compound 03-262] | < 10 nM
CC(C)(C)NC[C@H](O)c1cccc(NC2CC(F)(F)C2)n1 [Compound 03-263] | < 10 nM
CC(C)(C)NC[C@H](O)c1cccc(NC2(C)CC2)n1 [Compound 03-264] | < 10 nM
COc1ccc(C[C@@H](C)NC[C@H](O)c2cccc(C3CCCC3)n2)cc1 [Compound 03-265] | < 10 nM
CC(C)(C)NC[C@H](O)c1cccc(NCC(F)(F)F)n1 [Compound 03-266] | < 10 nM
Cc1nc(C2CC2)ccc1[C@@H](O)CNC(C)(C)C [Compound 03-268] | < 10 nM
COc1ccc(C[C@@H](C)NC[C@H](O)c2cc(Cl)cnc2C)cc1 [Compound 03-271] | 10 to 100 nM
CC(C)(C)NC[C@@H](O)c1cccc(OC(C)(C)C)n1 [Compound 03-273] | 100 to 1000 nM
Cc1nc(NC2CC2)ccc1[C@@H](O)CNC(C)(C)C [Compound 03-274] | 10 to 100 nM
CNc1ccc([C@@H](O)CNC(C)(C)C)c(C)n1 [Compound 03-276] | 10 to 100 nM
[2H]C([2H])([2H])C(NCC(O)c1cccnc1C)(C([2H])([2H])[2H])C([2H])([2H])[2H] (stereo not shown) [Compound 03-278] | < 10 nM
[2H]C([2H])([2H])Nc1cccc([C@@H](O)CNC(C)(C)C)n1 [Compound 03-279] | 100 to 1000 nM
CC(C)(C)NC[C@H](O)c1cccc(C(C)(C)CN)n1 [Compound 03-280] | > 1000 nM
